From US20160221974A1, “SODIUM CHANNEL MODULATORS FOR THE TREATMENT OF PAIN AND DIABETES” (CHROMOCELL CORPORATION, priority 2013, published 2016)

How the values were obtained:
NaV1.7 = molecular target: T1, NaV1.7 (Homo sapiens, UniProt Q15858); experiment: Patchliner Electrophysiological In-Vitro Assay (NaV1.7); assay type: cell-based; conditions: Patchliner patch clamp, HEK293, holding at V1/2
T1 construct: expressed in transfected cells
In short: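 Automated whole-cell patch clamp at room temperature on HEK293 cells stably expressing hNav1.7 with β1 and β2 subunits. Inactivated-state Ki: cells held at their own V1/2, stepped to −120 mV for 5–10 ms, then to Vmax for 10–20 ms, repeated every 10 s; dose-dependent inhibition analysed.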

NaV1.5 = molecular target: T2, NaV1.5 (Homo sapiens, UniProt Q14524); experiment: Patchliner Electrophysiological In-Vitro Assay (NaV1.5); assay type: cell-based; conditions: Patchliner patch clamp, HEK293
T2 construct: expressed in transfected cells
Description: The recording of sodium current from stable HEK293 cell lines expressing NaV1.7 or NaV1.5 was done on a Patchliner® instrument, Nanion Technologies. The Patchliner® is a fully automated bench-top patch clamp platform and can record simultaneously from up to eight single cells with GΩ seals.
For patch-clamp experiments, cells were grown under standard culturing conditions in Dulbecco's Modified Eagles medium supplemented with 10% fetal bovine serum, glutamine and HEPES. Cells were harvested and kept in suspension for up to 4 hours with no significant change in quality or ability to patch. Whole cell patch clamp recordings were conducted according to Nanion's standard procedure for the Patchliner®. Experiments were conducted at room temperature.
Voltage protocols were designed to establish: 1) peak current amplitude (Imax), 2) test potential (Vmax) and 3) half-inactivation potential (V1/2) for each of the eight individual cells. To determine V1/2, a standard steady-state inactivation protocol was executed using a series of fifteen 500 ms depolarizing pre-pulses in 10 mV increments (starting at −130 mV) and immediately followed by a 10 ms test pulse to Vmax. To estimate test compound affinity to the inactivated state of sodium channel (Ki), the holding potential for each cell was set automatically to the V1/2 calculated from a steady-state inactivation data. The current was activated with the following voltage protocol: holding at V1/2 for 2-5 seconds, return to the −120 mV for 5-10 ms to relieve fast inactivation, stepping to test potential (Vmax) for 10-20 ms. This voltage protocol was repeated every 10 seconds to establish the baseline with 2-3 buffer additions followed by the test compound addition. The dose-dependent inhibition was analyzed using Nanion's Data Analysis Package.

[1] = test system: Partial Sciatic Nerve Ligation (PSNL) model; experiment: Partial Sciatic Nerve Ligation (PSNL) model, behavioral tests; assay type: in vivo, male Sprague-Dawley rats; conditions: oral route, relative to vehicle control, measured 30 minutes post dose
Text: 250-350 g male Sprague-Dawley rats from appropriate animal resources were anesthetized with 2.5% isoflurane. A hind leg was shaved, and the skin was sterilized with 0.5% iodine and 75% alcohol. All surgical instruments were sterilized before surgery and between animals. An incision (1 cm) was made at the middle of the thigh in parallel with the muscle and sciatic nerve distribution. The muscle was exposed and dissected at the joint of two muscles (biceps femoris) indicated by the light colored (white) fascia line. The sciatic nerve was just beneath the muscle and was hooked out using an 18-20 G feeding needle (90 degree curved); the sciatic nerve was flat on the feeding needle and approximately one-half the diameter of the nerve is tightly ligated with 7-0 silk suture. A response of the injured leg twitch indicates the success of ligation. After checking hemostasis, bupivicaine 0.1-0.2 ml (0.125%) was given at the incision area, the muscle and the adjacent fascia are closed with 5-0 absorbable sutures. The skin was sutured with absorbable suture and tissue glue. The control group using sham surgery animals (about 8-10 animals) underwent the same surgical procedure but with no nerve ligation. Animals were returned to their home cage after recovery from anesthesia.
The analgesic effect of the test compound was expressed as a percent recovery (% Recovery) relative to the sham control group baseline and calculated according to the formula:
% Recovery=100%−{[(sham mean−test compound mean)/(sham mean−vehicle mean)]×100%}
wherein “sham mean” refers to average score in the sham-operated group; “test compound mean” refers to average score in the PSNL-group (animals with partial sciatic nerve ligation) or diabetic group (animals treated with STZ) treated with a test compound; “vehicle mean” refers to average score in the PSNL-group or diabetic group treated with vehicle only. The above formula was used to obtain data for the following in vivo behavioral tests.
The following behavioral tests were conducted (i.e., plantar test, paw pressure test, and von Frey test) started on day 3 and thereafter once weekly following surgery or use of a diabetic inducer. […]
Rats were placed on the glass surface of a thermal testing apparatus (Model 336, IITC/Life Science Instruments, Woodland Hills, Calif.) and were allowed to acclimate for 10 min before testing on the glass surface at room temperature. […] The paw withdrawal latency was recorded by a digital timer. The thermal threshold was determined as the mean withdrawal latency from two to three consecutive trials of both hindpaws. […]
Animals were placed under clear plastic boxes above a wire mesh floor, which allowed full access to the paws. […] Mechanical paw withdrawal thresholds (PWTs) were measured with the up-down testing paradigm. […]

T1 sequence (Q15858 whole entry): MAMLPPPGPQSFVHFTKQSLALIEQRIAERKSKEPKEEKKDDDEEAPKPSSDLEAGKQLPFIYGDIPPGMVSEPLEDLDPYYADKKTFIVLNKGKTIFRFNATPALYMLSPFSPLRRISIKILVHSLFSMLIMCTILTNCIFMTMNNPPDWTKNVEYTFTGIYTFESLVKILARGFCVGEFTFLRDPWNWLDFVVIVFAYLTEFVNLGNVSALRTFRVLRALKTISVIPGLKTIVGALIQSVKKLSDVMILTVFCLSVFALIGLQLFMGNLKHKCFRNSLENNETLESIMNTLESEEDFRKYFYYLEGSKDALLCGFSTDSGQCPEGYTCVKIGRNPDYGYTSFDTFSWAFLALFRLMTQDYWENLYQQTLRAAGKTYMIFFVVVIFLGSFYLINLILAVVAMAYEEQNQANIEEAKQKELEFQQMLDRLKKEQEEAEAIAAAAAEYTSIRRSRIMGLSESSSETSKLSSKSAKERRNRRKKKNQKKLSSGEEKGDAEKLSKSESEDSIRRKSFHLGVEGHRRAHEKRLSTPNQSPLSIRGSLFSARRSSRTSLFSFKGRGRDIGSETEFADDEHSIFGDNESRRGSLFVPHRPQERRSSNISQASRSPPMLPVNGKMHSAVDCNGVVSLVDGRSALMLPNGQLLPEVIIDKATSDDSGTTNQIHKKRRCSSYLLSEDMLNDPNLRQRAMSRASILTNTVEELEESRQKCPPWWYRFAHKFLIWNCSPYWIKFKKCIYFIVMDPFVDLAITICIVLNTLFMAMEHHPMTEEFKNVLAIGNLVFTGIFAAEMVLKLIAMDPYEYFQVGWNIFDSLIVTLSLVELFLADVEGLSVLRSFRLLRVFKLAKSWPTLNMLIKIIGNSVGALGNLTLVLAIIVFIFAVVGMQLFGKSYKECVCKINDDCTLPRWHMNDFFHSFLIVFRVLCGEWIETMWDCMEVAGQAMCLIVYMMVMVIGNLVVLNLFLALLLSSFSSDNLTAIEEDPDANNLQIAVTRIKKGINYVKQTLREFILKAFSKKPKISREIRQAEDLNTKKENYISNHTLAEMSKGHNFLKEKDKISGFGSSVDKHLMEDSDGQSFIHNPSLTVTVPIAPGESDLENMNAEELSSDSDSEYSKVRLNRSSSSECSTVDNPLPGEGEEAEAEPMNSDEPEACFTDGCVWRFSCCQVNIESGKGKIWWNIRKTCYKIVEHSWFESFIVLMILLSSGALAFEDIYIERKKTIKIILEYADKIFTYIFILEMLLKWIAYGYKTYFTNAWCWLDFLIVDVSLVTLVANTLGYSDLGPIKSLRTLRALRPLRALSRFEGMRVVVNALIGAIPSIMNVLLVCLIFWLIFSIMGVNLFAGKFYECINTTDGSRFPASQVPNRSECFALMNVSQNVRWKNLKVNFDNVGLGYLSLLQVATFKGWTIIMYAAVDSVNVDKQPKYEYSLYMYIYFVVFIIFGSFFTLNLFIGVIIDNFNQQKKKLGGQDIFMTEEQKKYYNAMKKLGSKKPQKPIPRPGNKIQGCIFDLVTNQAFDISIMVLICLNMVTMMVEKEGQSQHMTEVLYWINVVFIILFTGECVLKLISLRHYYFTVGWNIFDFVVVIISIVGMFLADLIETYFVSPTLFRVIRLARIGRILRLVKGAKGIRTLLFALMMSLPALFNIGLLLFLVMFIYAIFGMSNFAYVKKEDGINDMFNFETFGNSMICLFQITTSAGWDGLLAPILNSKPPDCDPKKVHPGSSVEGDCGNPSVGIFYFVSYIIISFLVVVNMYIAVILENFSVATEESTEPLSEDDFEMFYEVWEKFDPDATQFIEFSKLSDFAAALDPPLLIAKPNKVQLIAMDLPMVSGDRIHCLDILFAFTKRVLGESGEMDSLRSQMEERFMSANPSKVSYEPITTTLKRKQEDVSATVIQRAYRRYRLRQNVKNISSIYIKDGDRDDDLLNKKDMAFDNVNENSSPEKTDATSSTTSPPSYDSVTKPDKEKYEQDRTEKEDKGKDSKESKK
T1 sequence (Q07699 19-218 partner): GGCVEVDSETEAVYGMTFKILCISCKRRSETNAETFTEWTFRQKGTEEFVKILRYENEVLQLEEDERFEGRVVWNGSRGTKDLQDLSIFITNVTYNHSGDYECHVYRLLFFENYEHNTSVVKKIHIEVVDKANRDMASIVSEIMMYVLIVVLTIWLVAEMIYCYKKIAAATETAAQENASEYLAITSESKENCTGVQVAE
T1 sequence (O60939 30-215 partner): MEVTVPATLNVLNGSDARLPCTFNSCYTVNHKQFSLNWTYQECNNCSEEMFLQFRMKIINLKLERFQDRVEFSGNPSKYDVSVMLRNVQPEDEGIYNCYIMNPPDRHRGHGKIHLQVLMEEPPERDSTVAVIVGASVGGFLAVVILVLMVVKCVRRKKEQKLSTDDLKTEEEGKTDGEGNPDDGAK
T2 sequence (Q14524 whole entry): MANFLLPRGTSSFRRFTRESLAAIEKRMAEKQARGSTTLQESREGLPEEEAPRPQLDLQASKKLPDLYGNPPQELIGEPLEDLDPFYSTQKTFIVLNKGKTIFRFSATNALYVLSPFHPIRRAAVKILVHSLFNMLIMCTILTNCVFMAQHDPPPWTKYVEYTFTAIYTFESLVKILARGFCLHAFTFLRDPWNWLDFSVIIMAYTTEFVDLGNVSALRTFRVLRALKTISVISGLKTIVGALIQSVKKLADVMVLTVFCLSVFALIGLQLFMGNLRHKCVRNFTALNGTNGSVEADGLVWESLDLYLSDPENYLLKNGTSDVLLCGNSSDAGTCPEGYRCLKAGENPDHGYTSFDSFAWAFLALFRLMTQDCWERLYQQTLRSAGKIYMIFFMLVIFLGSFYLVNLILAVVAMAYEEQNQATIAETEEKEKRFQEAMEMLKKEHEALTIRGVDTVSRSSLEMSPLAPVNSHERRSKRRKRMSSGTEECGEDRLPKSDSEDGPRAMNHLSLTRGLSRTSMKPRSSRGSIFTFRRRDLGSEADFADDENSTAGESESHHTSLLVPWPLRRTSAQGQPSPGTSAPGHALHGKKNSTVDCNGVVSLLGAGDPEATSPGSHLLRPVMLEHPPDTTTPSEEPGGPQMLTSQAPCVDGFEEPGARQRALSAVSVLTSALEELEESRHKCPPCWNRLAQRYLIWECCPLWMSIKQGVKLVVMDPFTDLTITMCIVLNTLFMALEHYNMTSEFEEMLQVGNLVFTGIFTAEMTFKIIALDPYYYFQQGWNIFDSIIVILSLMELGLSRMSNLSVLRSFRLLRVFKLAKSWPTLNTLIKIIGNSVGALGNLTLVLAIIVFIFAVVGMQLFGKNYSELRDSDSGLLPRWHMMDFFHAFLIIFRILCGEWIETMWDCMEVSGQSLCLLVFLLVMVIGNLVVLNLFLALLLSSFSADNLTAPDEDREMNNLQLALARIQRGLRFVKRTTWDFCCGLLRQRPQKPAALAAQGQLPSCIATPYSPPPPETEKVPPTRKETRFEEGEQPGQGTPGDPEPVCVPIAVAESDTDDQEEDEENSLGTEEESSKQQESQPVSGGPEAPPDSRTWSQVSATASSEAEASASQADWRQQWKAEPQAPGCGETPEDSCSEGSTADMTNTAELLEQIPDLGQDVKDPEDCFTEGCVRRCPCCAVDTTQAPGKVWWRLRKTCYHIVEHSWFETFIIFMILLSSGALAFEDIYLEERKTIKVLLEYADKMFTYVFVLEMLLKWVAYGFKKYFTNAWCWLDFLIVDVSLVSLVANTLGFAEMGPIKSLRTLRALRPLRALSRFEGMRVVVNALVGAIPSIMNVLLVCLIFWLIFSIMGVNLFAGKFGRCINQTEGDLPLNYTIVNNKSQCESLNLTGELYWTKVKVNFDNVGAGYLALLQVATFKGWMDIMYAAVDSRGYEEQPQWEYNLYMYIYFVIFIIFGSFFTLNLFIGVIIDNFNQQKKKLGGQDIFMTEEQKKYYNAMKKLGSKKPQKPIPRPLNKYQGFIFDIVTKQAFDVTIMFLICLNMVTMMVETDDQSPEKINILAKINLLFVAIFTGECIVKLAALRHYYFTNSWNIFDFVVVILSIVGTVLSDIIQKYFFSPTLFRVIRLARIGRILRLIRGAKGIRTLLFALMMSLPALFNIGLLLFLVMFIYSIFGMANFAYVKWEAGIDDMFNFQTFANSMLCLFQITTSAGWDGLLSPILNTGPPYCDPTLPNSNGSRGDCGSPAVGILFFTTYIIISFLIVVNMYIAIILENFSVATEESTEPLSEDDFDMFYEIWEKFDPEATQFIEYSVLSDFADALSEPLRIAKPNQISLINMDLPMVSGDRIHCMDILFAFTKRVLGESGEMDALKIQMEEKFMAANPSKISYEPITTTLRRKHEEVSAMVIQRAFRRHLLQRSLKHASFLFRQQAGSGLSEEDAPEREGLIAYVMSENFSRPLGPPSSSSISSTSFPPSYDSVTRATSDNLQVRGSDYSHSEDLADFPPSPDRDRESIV

IC50 (NaV1.7): < 100 nM
SMILES: NC(=O)CNCCCc1cc(Cl)ccc1Oc1cc(F)c(S(=O)(=O)Nc2cscn2)cc1Cl [Compound 49, 2-((3-(5-chloro-2-(2-chloro-5-fluoro-4-(N-(thiazol-4-yl)sulfamoyl)phenoxy)phenyl)propyl)amino)acetamide]
IC50 (NaV1.5): > 10 µM
effect in the tactile allodynia test [1]: no significant effect
